Assay results from PMC11476552, “Synthesis and Preliminary Studies for In Vitro Biological Activity of Two New Water-Soluble Bis(thio)carbohydrazones and Their Copper(II) and Zinc(II) Complexes” (International Journal of Molecular Sciences, 2024).
“And” between values parts separate entries of the source, which are not always exact repeats. Identical values can stand only once. Like-named read-outs stand apart in the source and are kept apart here.

Columns and labels:
[1] = Proton dissociation constants by pH potentiometry; assay type: physicochemical; conditions: aqueous solution, T = 298.2 K, I = 0.1 M KCl
Text: Between pH = 3.98 and 6.00, the solutions were colourless with absorption maxima at 237 and 320 nm. From pH = 6.49, the solution was pale green, and the colour became more intense until pH = 10.00; the colour change was accompanied by the appearance of bands at 253 and 393 nm, with a shoulder at 445 nm. […] This value is similar to that reported for the deprotonation of the phenolic moiety of sodium 5-sulfonate-salicylaldehyde thiosemicarbazones. The values of pKa1 and pKa2, associated with the proton dissociation of the sulfonic groups, are expected to have much lower values (below 3) and could not be determined from these experiments. Potentiometric titrations were performed in an attempt to determine the value of the pKa of the hydrazidic NH protons (pKa5 and pKa6) and, possibly, those of the protonated sulfonate groups. Effectively, potentiometric data allowed us to determine the pKa5 value, along with pKa3 and pKa4 (Table 2). The values of pKa3 and pKa4 obtained by potentiometry are consistent with those obtained by spectrophotometric titrations.
Similarly, the proton dissociation constants of bis-CH were studied spectrophotometrically in aqueous solution between pH = 3.98 and 10.00 (Figure 1B). […] The spectrophotometric data were processed by means of HypSpec2014 software, leading to pKa3 = 7.34(1) and pKa4 = 8.58(1), which were assigned to the deprotonation of the two phenolic OH groups (Table 2). As for bis-TCH, the single-site pKa value of the phenolic groups can be estimated as the average pKa (7.96). Additionally, to complete the analysis, we carried out potentiometric titrations of bis-CH starting from a very acidic pH. […] Importantly, no dissociation of the hydrazidic NH groups was observed, a behaviour consistent with that reported in the literature.
Glass-electrode potentiometric titrations of bis-TCH and bis-CH were carried out in aqueous solution at T = 298.2 ± 0.1 K and I = 0.1 M (KCl) under a stream of N2, using 1.5 mL samples. The potentiometric titrations were carried out using an automatic Metrohm OMNIS titrator provided with a Metrohm semi-micro glass electrode. The system was controlled by a PC to monitor the attainment of the equilibrium through pH measurements vs. time and the addition of titrant aliquots. The Metrohm combined glass electrode was calibrated in terms of [H^+] (hereafter, pH = −log[H^+]) by titrating HCl solutions with KOH solutions previously standardized against potassium hydrogen phthalate. […] The protonation constants of Na2H4L^1·5.5 H2O and Na2H4L^2·5 H2O were determined by alkalimetric titration of 3 samples (3.0–4.5 mM). All samples were prepared by weight of the pure solids and dissolved in freshly prepared, N2-fluxed, double-distilled water. Potentiometric data treatment was carried out using Hyperquad2013 software. Distribution diagrams were obtained using Hyss2009 software.

U937 cells = experiment: Antiproliferative activity, trypan blue cell count, U937; assay type: cell-based; conditions: for GI50: Homo sapiens, U-937, U937, 72 h
Experimental: We have started to investigate the antiproliferative profile of the ligands and of the complexes C1–C4 using a normal fibroblast cell line (Hs27) and a leukaemia cell line (U937), an in vitro cell model system systematically used to validate the toxicological profile of new potential anticancer agents. For the cytotoxicity assay, we treated Hs27 and U937 cells with five different concentrations of compound, ranging from 12.5 to 100 µg/mL, for 24, 48, and 72 h.
U937 cells (ATCC, CRL-1593.2) were obtained from the American Tissue Culture Collection (Rockville, MD, USA) and were cultured in Roswell Park Memorial Institute Medium (RPMI-1640) (Euroclone, Italy); Hs27 cells (ATCC, CRL1634) were grown in DMEM. Both media were supplemented with 10% (v/v) foetal bovine serum (Euroclone, Italy), 1% L-glutamine (2 mM) (Euroclone, Italy), and 1% penicillin (100 U/mL)/streptomycin (100 µg/mL) (Euroclone, Italy), added with 10% (v/v) foetal bovine serum (Euroclone, Italy), 1% L-glutamine (2 mM) (Euroclone, Italy), and 1% penicillin (100 U/mL)/streptomycin (100 µg/mL) (Euroclone, Italy). Flasks were maintained at 37 °C and 5% CO2 in a humidified atmosphere. Cultures media were refreshed every two or three days during sub-culturing.
The antiproliferative activity of the ligands and the complexes C1–C4 was evaluated in vitro on U937 and Hs27 cell lines. In the exponential growth phase, cells were seeded at 5 × 10^4/mL into 12-well flat-bottom microplates. Cells were cultured in complete medium supplemented with 10% FBS, 1% L-glutamine, and 1% penicillin/streptomycin at 37 °C, 5% CO2. After seeding, different concentrations of compounds in the range from 0 to 100 µg/mL in a sterile 1X PBS solution were added to the wells and incubated for 24, 48, and 72 h. A negative control was obtained by treating cells with 1X PBS. To detect whether the treatments caused a defect in cell viability, following 24, 48, and 72 h treatments with the compounds, cells were stained with trypan blue (TB, 0.4%) (Gibco™, Thermofisher Scientific, Waltham, MA, USA). Two independent experiments were performed, and a Bürker chamber was used for cell counts. The GI50 value, i.e., the concentration causing a 50% reduction in the cell number in comparison with control cells, was calculated taking into account the guidelines of the US National Cancer Institute (NCI). Values are reported as the mean of the GI50 calculated on two independent experiments.

Row | SMILES | pKa ([1]; read-out: pKa3) | pKa ([1]; read-out: pKa4) | pKa ([1]; second sulfonic group, read-out: pKa2) | GI50 (U937 cells) | cytotoxic effect (in words) (U937 cells; U937, up to 100 µg/mL, 24-72 h) | pKa ([1]; hydrazidic NH, read-out: pKa5) | reduction in cell viability (U937 cells; U937, highest dose, 72 h) [%]
1 | COc1cc(S(=O)(=O)[O-])cc(/C=N/NC(=O)N/N=C/c2cc(S(=O)(=O)[O-])cc(OC)c2O)c1O.[Na+].[Na+] [bis-CH, Bis-(sodium 3-methoxy-5-sulfonate-salicylaldehyde)-carbohydrazone] | 7.77 | 8.45 | 1.7 | 46.5 µg/mL and 71.8 µM | mild antiproliferative activity |  | 
2 | COc1cc(S(=O)(=O)[O-])cc(/C=N/NC(=S)N/N=C/c2cc(S(=O)(=O)[O-])cc(OC)c2O)c1O.[Na+].[Na+] [bis-TCH, Bis-(sodium 3-methoxy-5-sulfonate-salicylaldehyde)-thiocarbohydrazone] | 7.08 | 8.54 |  | 98 µg/mL and 144 µM |  | 11.3 | 50
